In patent publication US20150010475A1, “CRLF-2 BINDING PEPTIDES, PROTOCELLS AND VIRAL-LIKE PARTICLES USEFUL IN THE TREATMENT OF CANCER, INCLUDING ACUTE LYMPHOBLASTIC LEUKEMIA (ALL)” (STC. UNM, priority 2011, published 2015):
Values after ≈ are worked out from the molar mass of the structure shown.

Legend:
Hep3B = assay: Cytotoxicity of DOX, free or delivered in protocells or liposomes, in Hep3B; assay type: cell-based; conditions: as DOX
Excerpt: For toxicology studies there are two major issues which must be addressed: silica loading in the tissues, derived from the mesoporous silica core of the protocell, and non-targeted or “off target” delivery of the therapeutic cargos to normal tissues. […] Nevertheless, we will systematically evaluate all major organs and tissues in treated mice for silica deposition and cellular damage after treatment with loaded and unloaded protocells. […] As a benchmark, we compared oxidative stress and cell viability of neutral, positively and negatively-charged targeted protocells with corresponding liposomes and other control particles at 10^9 particles/mL corresponding to ˜1-2 μg/mL (FIG. 24). […] In preliminary studies (FIG. 25), we also compared the IgG response of C57Bl/6 mice immunized twice with 10 μg doses of targeted and SP94-targeted protocells to that of virus-like particles (VLPs) conjugated to the same concentration of targeting peptide (MS2 SP94). […] When considering therapeutically administered doses, for the hepatocellular carcinoma cell line Hep3B, the LC50 and LC90 values of free DOX are 150 and 500 ng/mL, respectively. […] As discussed above, Si loading will be assessed by ICP-MS. […]

[1] = biological target: human CRLF2 expressed on the cell surface (BaF3-CRLF2, REH-CRLF2, MHH CALL 4, MUTZ5 cells) (human) (UniProt Q9HC73); assay: protocell binding to BaF3-CRLF2, MUTZ5 and MHHCALL4 cells, against untargeted protocells, the parental BAF3 line or CRLF2(-) NALM6 cells (FIG. 19, 20)
CRLF2 = biological target: T1, CRLF2 (Homo sapiens, UniProt Q9HC73); assay: Flow cytometry binding of M13 phage displaying peptide to BaF3-CRLF2 cells; conditions: for binding to CRLF2 (peptides pulled from enriched phage population): phage display selection on BaF3 cells expressing CRLF2
T1 construct: expressed in transfected cells
T1 sequence (Q9HC73 23-371): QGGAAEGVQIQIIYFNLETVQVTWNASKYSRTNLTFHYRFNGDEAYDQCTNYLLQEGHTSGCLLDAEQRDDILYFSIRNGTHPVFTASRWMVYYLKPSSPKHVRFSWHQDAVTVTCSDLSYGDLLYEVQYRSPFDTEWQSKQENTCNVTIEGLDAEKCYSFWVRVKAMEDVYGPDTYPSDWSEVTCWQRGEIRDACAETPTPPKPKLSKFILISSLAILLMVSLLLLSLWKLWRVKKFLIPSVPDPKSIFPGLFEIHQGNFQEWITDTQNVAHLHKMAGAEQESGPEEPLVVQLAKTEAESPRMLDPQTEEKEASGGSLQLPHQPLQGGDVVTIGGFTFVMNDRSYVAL
Description: (§1) Flow cytometry is used to evaluate binding of individual phage clones within consensus sequences. In this case, a saturable binding curve can be constructed, allowing for the determination of the dissociation constant (Kd) of phage displaying potentially specific peptides that bind cells with high levels of CRLF2 expression but not parental cell lines with minimal expression.
The selections were carried out on BaF3 cells that had been induced to create the cell receptor CRLF2 and express it on their surface. Negative selections were carried out on the parental cell line (no CRLF2) in order to assure that the ligand identified was in fact binding to the desired target and not to other features on the surface of the cells.
(§2) Affinity selections on cellular targets are complicated by the heterogeneity of surface protein expression on mammalian cells, which frequently results in a large number of peptides that bind unsuitable targets. A major goal of the work we propose is to create an efficient selection/counter-selection scheme. To illustrate our strategy, the gene encoding human CRLF2 was introduced into BaF3 cells (a murine IL3-dependent pro-B cell line) and the protein's abundant surface expression was confirmed by FACS (as shown in Project 2). The resulting BaF3-CRLF2 cells, together with the BaF3 parental line (which specifically lacks CRLF2), served as a matched selection/counter-selection pair and provided a convenient means of discarding affinity selectants that bind the many non-CRLF2 receptors inevitably encountered on the BaF3 surface.
(§3) In this case, a saturable binding curve can be constructed, allowing for the determination of the disassociation constant (Kd) of phage displaying potential specific peptides that bind cells with high levels of CRLF2 expression but not parental cell lines with minimal expression. Data shown for the MTAAPVH phage clone on BaF3/CRLF2 (A) and parental BaF3 cells. (B) Binding curves were constructed by titrating the amount of phage with constant cell concentrations in order to quantitatively describe binding. Non-specific binding was determined by incubating wild-type phage with the same cell lines.
CRLF2 may be targeted using its natural ligand TSLP or with peptides that are specifically directed towards CRLF2; both approaches are being developed. […] Peptides selected by affinity for Ba-F3-CRLF2 cells were counter-selected against parental Ba-F3 cells to eliminate any phage binding receptors common to both cell types. We find that a matched selection/counter-selection pair greatly increases the specificity of the affinity selection process. It is important to note that in the VLP screening method, each VLP encapsidates its own mRNA. This means that the nucleotide sequences encoding any particular VLP and its guest peptide or protein are contained within the particle itself and can be recovered by reverse transcription and polymerase chain reaction.

BaF3 parental cells = assay: Flow cytometry binding of M13 phage displaying peptide to BaF3 parental cells; parameters: species or system murine
Excerpt: as §1, §2, §3
CRLF2 may be targeted using its natural ligand TSLP or with peptides that are specifically directed towards CRLF2; both approaches are being developed. […]

[2] = tested on: MHH CALL 4, Mutz-5 and BaF3/CRLF-2 cells; assay: Internalization of CRLF-2-targeted protocells by target cells; assay type: cell-based, human; conditions: peptide on protocell surface
Description: The upper-left portion of FIG. 7 depicts the internalization efficacy of CRLF-2-targeted protocells in the absence of the R8 peptide. The upper right portion of FIG. 7 presents images of CRLF-2-positive (MHH CALL 4) and CRLF-2-negative (MOLT 4) cells exposed to targeted protocells for 37° C. for two hours. N.D.=not detectable; bilayer composition=DOIDA in DSPC with 5 wt % DSPE; approximate peptide density=10 targeting peptides/protocell and ˜500 H5WYG peptides/protocell. Targeted protocells can become internalized within target cells (MHH CALL 4, Mutz-5 and BaF3/CRLF-2) over time. However, overall internalization efficiency is only ˜20%, which could lead to non-specific cytotoxicity. The lower-left portion of FIG. 7 depicts the internalization efficacy of CRLF-2-targeted protocells in the presence of the R8 peptide. The lower right portion of FIG. 7 presents images of CRLF-2-positive (MHH CALL 4) and CRLF-2-negative (MOLT 4) cells exposed to targeted protocells for 37° C. for two hours. N.D.=not detectable; bilayer composition=DOIDA in DSPC with 5 wt % DSPE; approximate peptide density=10 targeting peptides/protocell and −500 H5WYG peptides/protocell.
The upper-left portion of FIG. 8 depicts internalization kinetics for CRLF-2-targeted protocells in the absence and presence of the R8 peptide. […]

[3] = biological target: T2, human CRLF2 expressed on the cell surface (BaF3-CRLF2, REH-CRLF2, MHH CALL 4, MUTZ5 cells) (human, UniProt Q9HC73 23-371); assay: flow cytometry, Alexa-fluor-647 labeled particles incubated 1 h with BaF3/CRLF-2 cells
T2 construct: whole, on cells; Parental BaF3 / REH cells lack CRLF2 and served as negative controls; also called TSLP receptor; TSLPR
T2 sequence (looked up): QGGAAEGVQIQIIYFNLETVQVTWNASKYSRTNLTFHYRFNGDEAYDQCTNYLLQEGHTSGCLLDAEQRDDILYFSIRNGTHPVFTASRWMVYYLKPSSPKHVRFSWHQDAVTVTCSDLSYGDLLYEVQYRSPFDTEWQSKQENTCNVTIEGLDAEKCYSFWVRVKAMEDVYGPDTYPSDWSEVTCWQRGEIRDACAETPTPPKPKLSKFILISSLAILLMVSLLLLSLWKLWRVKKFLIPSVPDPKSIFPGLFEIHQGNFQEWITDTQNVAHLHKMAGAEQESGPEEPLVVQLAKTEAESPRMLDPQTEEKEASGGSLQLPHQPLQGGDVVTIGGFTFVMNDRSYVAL

[4] = biological target: T3, human CRLF2 expressed on the cell surface (BaF3-CRLF2, REH-CRLF2, MHH CALL 4, MUTZ5 cells) (human), Q9HC73; assay: binding of M13 phage to BaF3-CRLF2 cells (FIG. 18)
T3 chain: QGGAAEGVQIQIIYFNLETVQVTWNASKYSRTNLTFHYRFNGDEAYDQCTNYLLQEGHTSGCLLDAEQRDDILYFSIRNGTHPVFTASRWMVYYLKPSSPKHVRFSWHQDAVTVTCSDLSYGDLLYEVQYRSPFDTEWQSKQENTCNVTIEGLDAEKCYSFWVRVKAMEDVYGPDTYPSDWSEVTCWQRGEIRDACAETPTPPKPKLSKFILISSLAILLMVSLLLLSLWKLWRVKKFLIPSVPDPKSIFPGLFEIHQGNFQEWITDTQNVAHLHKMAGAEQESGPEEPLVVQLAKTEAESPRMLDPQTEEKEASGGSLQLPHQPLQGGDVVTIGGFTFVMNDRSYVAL

[5] = biological target: T3, human CRLF2 expressed on the cell …; assay: flow cytometry, M13 phage on BaF3-CRLF2 cells (FIG. 3)

COc1cccc2c1C(=O)c1c(O)c3c(c(O)c1C2=O)C[C@@](O)(C(=O)CO)C[C@@H]3O[C@H]1C[C@H](N)[C@H](O)[C@H](C)O1 [free DOX, doxorubicin]
LC50 (Hep3B): 0.15 µg/mL (≈ 0.276 µM)
LC90 (Hep3B): 0.5 µg/mL (≈ 0.92 µM)

CRLF2-targeted protocells conjugated with the CRLF2-targeting peptide TDAHASV
fold higher affinity [1]: 1000 fold

FSYLPSH
binding to CRLF2 (peptides pulled from enriched phage population) (CRLF2): exhibited binding to CRLF2

MTAAPVH
Specific binding of phage clone to CRLF2 positive cells (CRLF2; BaF3/CRLF2, non-specific binding from wild-type phage): significant
binding to CRLF2 (peptides pulled from enriched phage population) (CRLF2): best binder
Specific binding of phage clone to the parental cells (BaF3 parental cells; parental BaF3): extremely minimal
promotion of internalization of protocells by CRLF2-positive cells [2]: does not promote rapid internalization

RRRRRRRR [R8, 8 mer polyarginine that promotes internalization, reference compound]
promotion of internalization of protocells by CRLF2-positive cells [2]: promoted this selective internalization in a density-dependent manner

TDAHASV [peptide ligand to CRLF2]
Kd (CRLF2; peptide displayed on M13 phage, BaF3-CRLF2 cells): 27.9 nM
binding to CRLF2 (peptides pulled from enriched phage population) (CRLF2): exhibited binding to CRLF2
binding to the BaF3 parent (BaF3 parental cells; peptide displayed on M13 phage): not showing significant binding
Kd (BaF3 parental cells; peptide displayed on M13 phage, read-out: Kd for the BaF3 parental line): < 3000 nM

B1: VLPs not displaying any additional peptides (other)
chain: ASNFTQFVLVDNGGTGDVTVAPSNFANGVAEWISSNSRSQAYKVTCSVRQSSAQNRKYTIKVEVPKVATQTVGGVELPVAAWRSYLNMELTIPIFATNSDCELIVKAMQGLLKDGNPIPSAIAANSGIY
notes: Control particle; also called nontargeted VLPs; particles not displaying any additional peptides
binding result [3]: no binding

TDAHASV (modifications not checked) [M13 filamentous phage displaying the CRLF2-binding peptide TDAHASV]
Kd [4]: 27.9 nM
Kd [5]: 3 nM
